# Data as given in patent US9468627B2, “Slow-release formulations of 5-hydroxytryptophan as an adjunct to pro-serotonergic therapies” (Duke University, priority 2010, dated 2016).
# Entries after “also recorded” stand apart in the source; their conditions may differ.
# Experiments:
# [1] = Side-effect and toxicity observation (body weight, drinking, diarrhea, 5-HT syndrome-like behaviors)
# Experimental: Tph2 R439H mice (˜25 g) were treated for >3 wks with a saturating dose of FLX (155 mg/L drinking water, ˜20 mg/kg/day). Thereafter Alzet 2001 minipumps (1 μl delivered/hr) containing a 5-HTP solution (100 mg/ml, ˜100 mg/kg/day) or only vehicle was implanted using isoflurane anesthesia, allowing for swift awakening, and the mice monitored for signs of 5-HT syndrome hourly for 8 hrs and at 24 hrs. Splaying (0=absent, 1=present, 2=severe), head twitch (#/min) and signs of hyperventilation (0=absent, 1=present, 2=severe) was scored. Body weights—a general index of toxicity—were followed for 2 days prior to and 5 days after pump implantation.
# METHODS: Mice on >2 w FLX (155 mg/L water, ˜20 mg/kg/d) were implanted with Alzet 2001 minipumps with vehicle (50% DMSO) or 100 mg/ml 5-HTP yielding a hourly (daily) dose of ˜4.2(100 mg)/kg for a ˜25 g mouse. Side-effect parameters were assessed between 30 min and 8 h following pump implantation under brief isoflurane anesthesia (day 1) and then daily (day 2-4). […] Diarrhea: Mice where placed individually in a cage with filter paper and the diarrhea level scored, 0-3. Tremor and splaying: Scored in home cage from 5 min videos. Temperature: Recorded by digital rectal temperature probe in lightly restrained mice. […] Statistics: Genotypes were analyses separately, with 2way RM-ANOVA or t-test as appropriate, and in the former case followed by Bonferroni post-hoc test.
# Side-effects were assessed after the AM dose, day 1-4. Diarrhea: Mice were placed individually in a cage with filter paper and the diarrhea level scored, 0-3, 0-15 min after injection. Tremor, splaying and head-twitch: Scored in home cage from 5 min videos, 25-30 min after injection. Temperature: Recorded by digital rectal temperature probe in lightly restrained mice 30 min after injection. […] Statistics: Genotypes were analyzed separately, with 2way RM-ANOVA or t-test where appropriate, and in the former case followed by Bonferroni post-hoc test.
# METHODS: 5-HTP (2 mg/L) was dissolved in (1 mg/L) saccharin-H2O, administered in blackened bottles and changed twice weekly. […] Body weights and drinking per cage was followed throughout and 5-HTP consumed estimated here from.
# [2] = HPLC pilot stability of 5-HTP in water; assay type: physicochemical; details: H2O at RT, HPLC pilot experiments
# [3] = immediate-release oral 5-HTP; cited from earlier work
# [4] = cited from earlier work
# [5] = Shindo et al. 1977; cited from earlier work
# [6] = tested on: extracellular serotonin (5-HTExt); assay: 5-HT microdialysis (5-HTExt); assay type: in vivo, mice
# Experimental: Mice were anesthetized by ketamine/xylazine (100 and 10 mg kg^−1, respectively, in saline, i.p) and a guide cannula (CMA7, CMA Microdialysis, Chelmsford, Mass., USA) was stereotactically implanted into the frontal cortex (AP: 2.3 mm, ML: 0.3 mm, DV: 0.7 mm), hippocampus (AP: −3.3 mm, ML: 3.0 mm, DV: 1.5 mm) or lateral ventricle (AP: 0.3 mm; ML: 0.9 mm; DV: 2.0 mm) according to the atlas by Franklin and Paxinos (see, e.g., Franklin, K. and Paxinos, G. The Mouse Brain in Stereotaxic Coordinates. Academic Press: San Diego, 1997) and fixed in place with two anchor screws (CMA) and carboxylate dental cement (CMA). Operated mice were singly housed, treated with antibiotics (1.2 mg sulfamethoxazole ml^−1 and 0.24 mg trimethoprim ml^−1) in the drinking water and allowed to recover 48-96 h post-surgery.
# The microdialysis probe was inserted into the guide cannula approximately 16 h before the start of sample collection to allow for the stabilization of 5-HTExt levels. […] Dialysates were analyzed off-line by high-performance liquid chromatography-electrochemical detection (HPLC-EC) for 5-HT, 5-HIAA, 3,4-dihydroxyphenylacetic acid and homovanillic acid, or by the SymDAQ HPLC-tandem-mass spectrometry technology for simultaneous determination of monoamines and amino acids.
# METHODS: 5-HT Microdialysis 5-HTP SR. […] 5-HTExt in dialysates was determined by HPLC-EC. […]
structure (smiles),measurement,setting,value
"N[C@@H](Cc1c[nH]c2ccc(O)cc12)C(=O)O [5-HTP, 5-hydroxytryptophan]",drinking,[1]; 5-HTP 2 mg/ml and 4 mg/ml in drinking water,Decreased drinking
same,body weight,[1]; 5-HTP 4 mg/ml in drinking water,Body weight decrease
same,5-HT syndrome-like behavior,"[1]; acute 5-HTP bolus 80 mg/kg i.p., add-on to existing FLX ≈18 mg/kg/day",resulted in 5-HT syndrome-like behavior; also recorded: causes 5-HT syndrome; also recorded: Serotonin syndrome-like behavior was observed
same,"diarrhea, malaise, gastrointestinal side effects",[1]; bolus injection 5-HTP 120 mg/kg i.p.,caused gastrointestinal side effects; also recorded: caused diarrhea and obvious malaise
same,"diarrhea, malaise, gastrointestinal side effects",[1]; continuous 5-HTP in drinking water 4 mg/ml,No diarrhea and no obvious malaise; also recorded: did not result in gastrointestinal side effects
same,drinking,"[1]; higher 5-HTP concentrations in drinking water, in pilots",inhibited drinking
same,"toxicity (weights, head twitches, diarrhea)","[1]; oral 5-HTP ≈200 mg/kg/day, no carbidopa, add-on to existing fluoxetine ≈18 mg/kg/day",No indication of toxicity; also recorded: not toxic and does not result in side effects
same,stability in H2O,[2],stable for weeks
same,T1/2,[3],2 to 3 h
same,Tmax,[3],1 to 2 h
same,antidepressant effect (HAMD) at endpoint,"[4]; Alino et al.: 30 inpatients, nialamid 300 mg + 5-HTP 300 mg, two weeks, double-blind",significantly better than nialamide alone
same,antidepressant effect (HAMD) versus clomipramine + placebo,"[4]; Nardini et al.: 26 inpatients, clomipramine 50 mg + 5-HTP 300 mg, four weeks, double-blind",5-HTP enhanced clomipramines effect
same,patients going into remission,"[4]; van Hiele: 99 chronic treatment resistant out-patients, mostly on TCAs, add-on 5-HTP ~200 mg + carbidopa, open label",Forty-three
same,side effects,"[4]; van Hiele: add-on 5-HTP ~200 mg + carbidopa, severity greatly decreased with enteric coated capsules","nausea, vomiting and diarrhea"
same,patients improved,"[4]; van Praag: 7 chronic treatment resistant out-patients, clomipramine 50 mg + 5-HTP ~2-400 mg + PDI MK 486",Four
same,first-pass metabolism in the intestine,[5],~50%
CCCN(CCC)C1CCc2cccc(O)c2C1 (stereo not shown) [8-OH-DPAT],decrease of 5-HTExt,[6]; 8-OH-DPAT 1 mg/kg i.p.,approximately 50%
"CNCCC(Oc1ccc(C(F)(F)F)cc1)c1ccccc1 (stereo not shown) [FLX, fluoxetine]",effect of FLX on 5-HTP-induced diarrhea (peri-rectal fecal smearing),"[1]; FLX ≈18 mg/kg/day, 5-HTP bolus 80 mg/kg i.p., not rigorously tested",seems to decrease diarrhea induced by 5-HTP; also recorded: appeared to lessen 5-HTP-induced diarrhea
same,5-HTExt response to chronic FLX,"[6]; wild-type mice, FLX ≈18 mg/kg/day",robust increase
